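Step 1: Grow cells in 96-well plates. Step 2: Expose to compound for 48 hours at 5 concentrations. Step 3: Interpolate endpoints linearly; if unreached, use highest concentration. GI50: concentration for 50% inhibition of growth. TGI: total growth inhibition.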
What was measured:
Assay in all cases: inhibition of tumour cell growth, NCI panel, 48 h
SNB-75 CNS = test system: SNB-75 CNS
HOP-62 NSCLC = test system: HOP-62 NSCLC
MALME-3M melanoma = test system: MALME-3M melanoma
MDA-MB-231 breast = test system: MDA-MB-231 breast
RPMI-8226 leukemia = test system: RPMI-8226 leukemia
KM12 colon = test system: KM12 colon
UACC-62 melanoma = test system: UACC-62 melanoma
MDA-MB-435 = test system: MDA-MB-435
SF-539 CNS = test system: SF-539 CNS
OVCAR-8 ovarian = test system: OVCAR-8 ovarian

Row | Compound | TGI (SNB-75 CNS) | TGI (HOP-62 NSCLC) | TGI (MALME-3M melanoma) | TGI (MDA-MB-231 breast) | TGI (RPMI-8226 leukemia) | TGI (KM12 colon) | TGI (UACC-62 melanoma) | TGI (MDA-MB-435) | TGI (SF-539 CNS) | TGI (OVCAR-8 ovarian) | GI50 (MALME-3M melanoma) | GI50 (OVCAR-8 ovarian) | GI50 (UACC-62 melanoma) | GI50 (MDA-MB-435) | GI50 (RPMI-8226 leukemia)
1 | NC(CC(O)(c1ccccc1)c1ccccc1)c1ccccc1S (stereo unspecified) | 28.2 µM | 30.2 µM | 54.8 µM | 33.3 µM | 68.3 µM | 25.5 µM | 32 µM | 28 µM | – | – | – | – | – | – | –
2 | CC(=O)OC(C)(C)CCC(=O)[C@](C)(O)[C@H]1[C@H](O)C[C@@]2(C)[C@@H]3CC=C4C(C)=C(OC5OC(CO)C(O)C(O)C5O)C(=O)C[C@@H]4[C@]3(C)C(=O)C[C@]12C (stereo partly specified) | > 100 µM | > 100 µM | > 100 µM | > 100 µM | – | > 100 µM | > 100 µM | > 100 µM | > 100 µM | > 100 µM | – | – | – | – | –
3 | O=C(O)CCc1ccc2c(c1)CC1(Cc3ccccc3C1)C2 | 96.4 µM | > 100 µM | > 100 µM | > 100 µM | > 100 µM | > 100 µM | > 100 µM | > 100 µM | > 100 µM | > 100 µM | – | – | – | – | –
4 | CN(C)c1ccc(/C=C/C(=O)O)cc1 | > 100 µM | > 100 µM | > 100 µM | – | > 100 µM | > 100 µM | > 100 µM | – | > 100 µM | > 100 µM | – | – | – | – | –
5 | CN(Cc1cnc2nc(N)nc(N)c2n1)c1ccc(C(=O)NC(CCC(=O)NC(CC(P(=O)(O)O)P(=O)(O)O)C(=O)O)C(=O)O)cc1 (stereo unspecified) | > 100 µM | > 100 µM | > 100 µM | > 100 µM | – | – | > 100 µM | > 100 µM | – | > 100 µM | – | – | – | – | –
6 | CC12ON(P(=O)(c3ccccc3)c3ccccc3)C(C)(c3ccccc31)c1ccccc12 | > 100 µM | > 100 µM | > 100 µM | > 100 µM | > 100 µM | > 100 µM | > 100 µM | > 100 µM | > 100 µM | > 100 µM | – | – | – | – | –
7 | O=[N+]([O-])c1ccc(O)c(/C=N/c2nc(-c3ccccc3)cs2)c1 | 75.5 µM | > 90.5 µM | 74.6 µM | > 100 µM | 30.9 µM | > 100 µM | 30.8 µM | > 100 µM | – | 68.4 µM | – | – | – | – | –
8 | CC(=O)OC(C)c1cc2c(s1)C(=O)c1c(C(C)OC(C)=O)csc1C2=O (stereo unspecified) | 4.43 µM | 2.5 µM | 0.412 µM | 3.6 µM | 4.98 µM | 3.41 µM | 2.51 µM | 0.34 µM | 2.36 µM | 2.05 µM | 0.186 µM | 0.452 µM | 1.09 µM | 0.185 µM | –
9 | CC1=CCC[C@H]2[C@](C)(CC3=CC(=O)C(Sc4ccccc4)=CC3=O)[C@@H](C)CC[C@]12C | 54.5 µM | 32.6 µM | – | 51.8 µM | 46.1 µM | > 100 µM | 55.3 µM | 43.5 µM | 34.6 µM | 26.4 µM | – | – | – | 17.1 µM | 20.2 µM
10 | COc1cc2c(cc1OC)[C@@](C)(C(O)C(O)C(C)(C)O)NCC2 (stereo partly specified) | > 100 µM | > 100 µM | > 100 µM | > 100 µM | > 100 µM | – | > 100 µM | > 100 µM | > 100 µM | > 100 µM | – | – | – | – | –
11 | COc1ccc(C2SCC(=O)N2NC(=O)C(C)Oc2ccccc2C)cc1 (stereo unspecified) | > 100 µM | > 100 µM | > 100 µM | > 100 µM | > 100 µM | > 100 µM | > 100 µM | > 100 µM | > 100 µM | > 100 µM | – | – | – | – | –
12 | COc1c(C)c(C/C=C(\C)CC/C=C(\C)CC/C=C(\C)CCC=C(C)C)c(OC)c2ccccc12 | > 100 µM | > 100 µM | – | > 100 µM | – | > 100 µM | > 100 µM | > 100 µM | > 100 µM | > 100 µM | – | – | – | – | –
13 | COC(=O)c1ccccc1C1=C([N+](=O)[O-])C(c2ccccc2)C(C#N)=C(N)O1 (stereo unspecified) | > 100 µM | > 100 µM | – | > 100 µM | > 100 µM | > 100 µM | > 100 µM | > 100 µM | > 100 µM | > 100 µM | – | – | – | – | –
14 | COc1cc(CCN(C)C)cc(OC)c1OC | > 100 µM | > 100 µM | – | > 100 µM | > 100 µM | > 100 µM | > 100 µM | > 100 µM | > 100 µM | > 100 µM | – | – | – | – | –
15 | CC12CCC(C(=Nc3cc(C(F)(F)F)cc(C(F)(F)F)c3)C1=O)C2(C)C (stereo unspecified) | – | > 100 µM | 69.4 µM | > 100 µM | 44.7 µM | 91.7 µM | > 100 µM | > 100 µM | 44.9 µM | > 100 µM | – | – | – | – | –
16 | CCOC(=O)c1[nH]c2cccc3c2c1CC[C@H](NC(=O)C(F)(F)F)C3=O | 56.7 µM | 72.5 µM | > 100 µM | > 100 µM | > 100 µM | > 100 µM | – | > 100 µM | > 100 µM | > 100 µM | – | – | – | – | –
17 | CN[C@@H](C)[C@@H](O)c1ccccc1 | > 100 µM | > 100 µM | > 100 µM | > 10 µM | > 100 µM | > 100 µM | – | > 100 µM | > 100 µM | > 100 µM | – | – | – | – | –
18 | CC(C)(C)OC(=O)N1[C@@H]2Cc3ccc(N)cc3[C@@]1(C)c1ccccc12 | – | > 100 µM | 91 µM | 75.3 µM | 48.6 µM | > 100 µM | 53.6 µM | 33.3 µM | – | – | – | – | – | – | –
19 | COc1cccc(-c2nccc3c(OCc4ccccc4)c(OC)c(OC)cc23)c1 | > 100 µM | > 100 µM | > 100 µM | – | > 100 µM | > 100 µM | > 100 µM | – | > 100 µM | > 100 µM | – | – | – | – | –
20 | COCC12CCC(OC)C34C5CC6(O)C(OC)CC(OC(C)=O)(C5C6OC(=O)c5ccccc5)C(C(OC)C13)C4N(C)C2 (stereo unspecified) | – | > 100 µM | > 100 µM | > 100 µM | > 100 µM | > 100 µM | > 100 µM | > 100 µM | > 100 µM | > 100 µM | – | – | – | – | –
21 | COc1ccc2[nH]c(C(=O)N3CC(CCl)c4c3cc(N)c3ccccc43)cc2c1 (stereo unspecified) | – | 0.0358 µM | – | – | 0.138 µM | 0.263 µM | < 0.0116 µM | – | – | < 0.0177 µM | – | – | – | – | –
22 | COc1cc(OC2OC(COC(=O)c3cc(O)c(O)c(O)c3)C(O)C(O)C2O)ccc1O (stereo unspecified) | > 100 µM | > 100 µM | > 100 µM | > 100 µM | > 100 µM | > 100 µM | – | 63.3 µM | > 100 µM | > 100 µM | – | – | – | – | –
